The nature of data set [1]: In vivo systemic and / or CNS availability.
The target in data set [2] is T1, NMDA receptor (Mus musculus, UniProt P35438).
T1 construct: from tissue; host or cells: living mice (albino Swiss males for NMDA and PTZ tests, NMR females for MES)
Put plainly: Maximal electroshock (MES)-induced tonic convulsions. To be noted: i.p.; for MES ID50 / ED50: 15 min before induction; for ED50: mouse, ip, 0.25 h, read-out: MES ID50. The data set is classed as in vivo. As for the experimental part: (§1) To assess NMDA receptor antagonistic properties of the tested agents by assessing anticonvulsive effects. Additionally the role of organic acid transporters in the elimination from the brain of tested agents was assessed by using an inhibitor, Probenicid, on the duration of anticonvulsive activity.
(§2) Male albino Swiss mice (19-21 g) housed 10-15 per cage were used for the NMDA lethality test (Leander et al., 1988). For pentylenetetrazol (PTZ)-induced convulsions male albino Swiss mice (25-34 g.) housed 40 per cage (58×38×20 cm) were used while in the maximal electroshock (MES) and motor impairment tests NMR female mice (18-28 g) housed 5 per cage were employed. All animals were kept with water and food ad libittum under a 12-h light-dark cycle (light on at 6 a.m.), and at a controlled temperature (20°±0.5° C.). All experiments were performed between 10 a.m. and 5 p.m. Tested agents were injected 15 min. i.p before the induction of convulsions if not stated otherwise (see below). Mrz 2/502 was dissolved in saline added with NaOH. Most other agents were dissolved in the following solution: 0.606 g Tris; 5.0 g. glucose; 0.5 g. Tween 80; and 95 ml water. The choline and tetramethylammonium salts were dissolved in distilled water.
(§3) MES (100 Hz, 0.5 sec shock duration, 50 mA shock intensity, 0.9 ms impulse duration, Ugo Basile) was applied through corneal electrodes. The presence of tonic convulsions was scored (tonic extension of hind paws with minimum angle to the body of 90°). In an additional experiment mice were injected with Probenicid (200 mg/kg) 30 min before administration of the tested agents to assess the role of organic acid transport in elimination (duration of action). The aim was to obtain ED50 s for all parameters scored using the Litchfield Wilcoxon (1949) test for quantal dose responses.

Data set [3] has as its target T2, NMDA receptor (Rattus norvegicus, UniProt P35439).
T2 construct: endogenous in cells
Nature of the data set: Patch clamp, inward currents to NMDA in cultured superior colliculus neurones. The data set is classed as cell-based. Conditions: NMDA 200 μM, glycine 1 μM. As for the experimental part: Cells were mechanically dissociated in 0.05% DNAase / 0.3% ovomucoid (Sigma) following a 15 minute pre-incubation with 0.66% trypsin / 0.1% DNAase (Sigma). The dissociated cells were then centrifuged at 18G for 10 minutes, resuspended in minimum essential medium (Gibco) and plated at a density of 200,000 cells cm onto poly-L-lysine (Sigma)-precoated plastic petri dishes (Falcon). The cells were nourished with NaHCO3 /HEPES-buffered minimum essential medium supplemented with 5% foetal calf serum and 5% horse serum (Gibco) and incubated at 37° C. with 5%CO2 at 95% humidity. The medium was exchanged completely following inhibition of further glial mitosis with cytosine-β-D-arabinofuranoside (20 μM Sigma) after about 7 days in vitro. Thereafter the medium was exchanged partially twice weekly. […] Moreover, the relatively small neurones (soma 15-20 μm .phi.) are ideally suited to minimise problems of buffered diffusion for concentration clamp experiments.
Patch clamp recordings were made from these neurones with polished glass electrodes (4-6 m.OMEGA.) in the whole cell mode at room temperature (20°-22° C.) with the aid of an EPC-7 amplifier (List). Test substances were applied by switching channels of a custom made fast superfusion system with a common outflow (10-20 ms exchange times). The contents of the intracellular solution were as follows (mM): CsCl (120), TEACl (20), EGTA (10), MgCl2 (1), CaCl2 (0.2), glucose (10), ATP (2), cAMP (0.25); pH was adjusted to 7.3 with CsOH or HCl. The extracellular solutions had the following basic composition (mM): NaCl (140), KCl (3), CaCl2 (0.2), glucose (10), HEPES (10), sucrose (4.5), tetrodotoxin (TTX 3*10-4). For most experiments glycine (1 μM) was present in all solutions. Experiments to test the glycine-dependence of the tricyclic "pyrido-phtalazin diones" were performed in the continuous presence of increasing concentrations of glycine (1-10 μM).
This effect was mediated at the glycineB site as evidenced by the parallel shift in the concentration-response curves in the presence of increasing glycine concentrations. Thus the Kbs of Mrz 2/502 as assessed according to the Cheng-Prusoff relationship were similar in glycine 1, 3 and 10 μM (80, 124 and 118 nM respectively). […] Choline derivatives had similar potencies to the free acids in vitro (Table14b).
Background: Patch clamp records ionic current or voltage across a cell membrane.

The target in data set [4] is T3, glycineB site of the NMDA receptor (rat cortical membranes) (Rattus norvegicus, UniProt P35439).
T3 construct: The cortex was dissected and homogenised in 20 volumes of ice-cold 0.32M sucrose; from tissue; host or cells: brain cortex membranes of male Sprague-Dawley rats
Nature of the data set: [3H]5,7-DCKA binding assay. Conditions: 10 nM [3H]5,7-DCKA. On the procedure:
Tissue preparation was performed according to Foster and Wong (1987). Male Sprague-Dawley rats (200-250g) were decapitated and their brains were removed rapidly. The cortex was dissected and homogenised in 20 volumes of ice-cold 0.32M sucrose using a glass-Teflon homogenizer. The homogenate was centrifuged at 1000×g for 10 min. The pellet was discarded and the supernatant centrifuged at 20,000×g for 20 min. The resulting pellet was resuspended in 20 volumes of distilled water and centrifuged for 20 min at 8000×g. Then the supernatant and the buffy coat were centrifuged three times (48,000× g for 20 min) in the presence of 5 mM Tris-HCl, pH 7.4. All centrifugation steps were carried out at 4° C. After resuspension in 5 volumes of 5 mM Tris-HCl, pH 7.4 the membrane suspension was frozen rapidly at -80° C. until the day of assay. On the day of assay the membranes were thawed and washed four times by resuspension in 5 mM Tris-HCl, pH 7.4 and centrifugation at 48,000× g for 20 min. The final pellet was suspended in assay buffer.
The amount of protein in the final membrane preparation was determined according to the method of Lowry (1951) with some modifications (Hartfree, 1972). 50 μl of Protein samples (in triplicates) were diluted to 1 ml with distilled water and treated with 0.9 ml of a solution containing 2 g potassium sodium tartrate and 10 g Na2 CO3 in 500 ml 1N NaOH and 500ml water. Blank and standard (with bovine serum albumin) were set up in the same way. The tubes were placed in a water bath at 50° C. for 10 min. and cooled at room temperature. 100 μl of a solution containing 2 g potassium sodium tartrate and 1 g CuSO4 x 5 H2 O in 90 ml water and 10 ml 1N NaOH were added. The samples were left at room temperature for at least 10 min., then 3 ml of Folin-Ciocalteu reagent (1 ml of reagent diluted with 15 ml water) was added rapidly during mixing. The tubes were again heated at 50° C. for 10 min. and cooled to room temperature. Absorbencies were then read in 1 cm cuvets at 650 nm. The final protein concentration used for our studies was between 100 and 250 μg/ml.
Incubation in both binding assays was terminated using a Millipore filter system. The samples, all in triplicate, were rinsed three times with 2.5 ml ice cold assay buffer over glass fibre filters obtained from Schleicher & Schuell under a constant vacuum. Following separation and rinse the filters were placed into scintillation liquid (5 ml; Ultima Gold) and radioactivity retained on the filters was determined by using conventional liquid scintillation counter (Hewlett Packard, Liquid Scintillation Analyser). `Total binding` was the absolute amount of radioligand bound in the absence of any additives whereas `non-specific` binding was determined in the presence of a high concentration of competitor.
[^3 H]5,7-DCKA binding assay
Experiments were performed according to the methods modified from previous groups (Canton et al., 1991; Yoneda et al., 1993). Membranes were suspended and incubated in 10 mM Tris-HCl, pH 7.4. Incubation time was 45 min at 4° C. Non-specific binding of [^3 H]5,7-DCKA was defined by the addition of unlabeled glycine at 0.1 mM. The stop-solution contained 10 mM Tris-HCl and 10 mM magnesium sulphate, pH 7.4. Filtration was performed as rapidly as possible. Displacement experiments were performed with a fixed [^3 H]5,7-DCKA concentration of 10 nM. Test compounds were diluted in water or DMSO and added in at least 5 different concentrations.

Data set [5] deals with T1, NMDA receptor. Put plainly: Pentylenetetrazol (PTZ)-induced convulsions. The format is in vivo. To be noted: ip, 0.25 h, i.p., PTZ 90 mg/kg i.p., read-out: PTZ ID50. As for the experimental part:
as §1, §2
Pentylenetetrazol was injected at a dose of 90 mg/kg (i.p). The presence of general tonic convulsions was then scored for 30 min as this parameter is more sensitive to NMDA receptor antagonists than clonic convulsions. The pharmacological end-point was taken as the presence of tonus in the hind limbs with stretching.

Data set [6] addresses T1, NMDA receptor. Nature of the data set: NMDA-induced convulsions / lethality test. The format is in vivo. Conditions: ip, 0.25 h, i.p., 15 min before induction, read-out: NMDA ID50. As for the experimental part:
as §1, §2
In the NMDA-induced convulsions test in mice, a dose-response relationship for NMDA was first performed to determine the ED97 dose which was then used for testing of antagonistic properties. After injection of the ED97 dose of NMDA the animals were placed in a small cage (20×28×14 cm) and observed for 20 min. Death preceded by clonic convulsions and by tonic seizures was the pharmacological end-point.

The test system of another data set is AMPA. Put plainly: Microelectrophoretic application of AMPA to spinal neurones in vivo. Conditions: i.v., responses of single rat spinal neurones. As for the experimental part:
(§4) The ability of these glycineB antagonists to act as NMDA receptor antagonists in vivo was assessed using i.v. administration against responses of single neurones in the rat spinal cord to microelectrophoretic application of AMPA and NMDA.

The test system of another data set is organic acid transport. Put plainly: Duration of anticonvulsive action with and without probenecid. The format is in vivo, mouse. Conditions: listed as 2/570. On the procedure:
as §1, §2, §3
Moreover it seems that choline salts have a longer duration of action. Probenecid injection prolonged considerably the duration of anticonvulsive action of all agents tested. For example the half lives of 2/514 and 2/570 were around 40 and 80 minutes respectively in the absence of probenicid. In the presence of probenicid the half lives were prolonged to around 180 and 210 minutes respectively. Thus, it seems that organic acids transport in the choroid plexus out of the brain plays an important role in the short duration of action of the compounds tested..

In data set [7] the target is T2, NMDA receptor. Nature of the data set: Microelectrophoretic application of NMDA to spinal neurones in vivo. To be noted: rat, iv, responses of single rat spinal neurones; read-out: Microelectrophoretic NMDA ID50. On the procedure:
as §4

The mark [8] stands for this setting: peak currents, read-out: Peak NMDA IC50.
Where [9] appears, read: plateau (steady-state) currents, read-out: Plateau NMDA IC50.

pIC50: −log10 of the molar value. Structures can show the parent of a compound that is named as a salt. Where two headings read alike, the source gives them in different places. Where only a bound is given, the exact number is not on record here.

In general, pIC50 refers to the negative decadic logarithm of the IC50, by convention in mol/L. Consider `O=c1[nH]nc(O)c2c1cc1ccccc1[n+]2[O-]` [Mrz 2/499, 4-hydroxy-1-oxo-1,2-dihydro-pyridazino[4,5-b]-quinoline 5-oxide], for which, in data set [1], the “in vivo systemic and / or CNS availability versus associated class I compounds” value is on record as “much better”. For the same molecule, the “activity in the MES test” value on NMDA receptor [2] is on record as “effective”. In addition, the “MES ID50” value at NMDA receptor [2] (listed as 499, 15 min) came out at 87.0 mg/kg. The values for the negative-log IC50 (pIC50) (at NMDA receptor [3] (setting [8]); on NMDA receptor [3] (setting [9]); in [4]) were 4.29, 4.86 and 4.80, respectively. On NMDA receptor [5], the ED50 was found to be 18.6 mg/kg.

With `O=c1[nH]nc(O)c2c1cc1cc(Cl)c(Cl)cc1[n+]2[O-]` [Mrz 2/518, 7,8-dichloro-4-hydroxy-1-oxo-1,2-dihydropyridazino-[4,5-b]-quinoline 5-oxide], the values for the ED50 at NMDA receptor [6] and on NMDA receptor [2] were greater than 100 mg/kg and greater than 60 mg/kg, respectively. In addition, the pIC50 at NMDA receptor [3] (setting [8]) was 5.42; at NMDA receptor [3] (setting [9]), 6.10; in [4], 6.19.

On to `O=c1[nH][nH]c(=O)c2nc3cc(Br)c(Cl)cc3cc12` [Mrz 2/538], for which the values for the ED50 on NMDA receptor [6], at NMDA receptor [2] and on NMDA receptor [5] were 106 mg/kg, greater than 60 mg/kg and greater than 100 mg/kg, respectively. In addition, the pIC50 at NMDA receptor [3] (setting [8]) is 4.03; at NMDA receptor [3] (setting [9]), 5.60.

`O=c1[nH][nH]c(=O)c2nc3cc(Cl)c(Br)cc3cc12` [Mrz 2/539]: the ED50 on NMDA receptor [6] is greater than 100 mg/kg; on NMDA receptor [2], greater than 60 mg/kg; at NMDA receptor [5], greater than 100 mg/kg. Moreover, the pIC50 was 5.28 at NMDA receptor [3] (setting [8]) and 6.15 on NMDA receptor [3] (setting [9]).

Regarding `O=c1[nH]nc(O)c2c1cc1cc(Br)ccc1[n+]2[O-]` [Mrz 2/570, 8-bromo-4-hydroxy-1-oxo-1,2-dihydropyridazino[4,5-b]-quinoline 5-oxide choline salt], in the data set on AMPA, the “Microelectrophoretic AMPA ID50” value is greater than 16.0 mg/kg. Further, the “half life of anticonvulsive action” value was roughly 1.33 h in the data set with organic acid transport (absence of probenecid) and roughly 3.5 h in the data set with organic acid transport (presence of probenecid 200 mg/kg, 30 min before). Also, the ED50 at NMDA receptor [7] worked out at 4.5 mg/kg. The “MES ID50” value at NMDA receptor [2] (listed as 570, 15 min) was found to be 12.8 mg/kg. Besides, the values for the negative logarithm of the IC50 (pIC50) at NMDA receptor [3] (setting [8]) and on NMDA receptor [3] (setting [9]) were 6.22 and 7.00, respectively.

On to `O=c1[nH][nH]c(=O)c2nc3ccccc3cc12` [Mrz 2/585], for which the ED50 on NMDA receptor [6] was 58.9 mg/kg; at NMDA receptor [2], greater than 100 mg/kg; on NMDA receptor [5] it was 59 mg/kg. Also, the pIC50 is 4.18 on NMDA receptor [3] (setting [8]) and 4.72 at NMDA receptor [3] (setting [9]).

Source of the values: patent publication US5776935A, “Pyrido-phtalazin diones and their use against neurological disorders associated with excitotoxicity and malfunctioning of glutamatergic neurotransmission” (Merz & Co. GmbH & Co., priority 1996, dated 1998).
